Laboratory results: patent publication US11433099B2, “Immunotherapy with B*08 restricted peptides and combination of peptides against cancers and related methods” (Immatics Biotechnologies GmbH, priority 2018, dated 2022)

How the values were obtained:
[1] = tested on: CD8+ T cells of healthy HLA-B*08 donors; assay: In vitro T-cell priming assay with aAPCs loaded with peptide/MHC complexes and anti-CD28 antibody, pMHC multimer readout; type: cell-based, human; conditions: in vitro immunogenicity
Excerpt: In order to obtain information regarding the immunogenicity of the TUMAPs of the present invention, the inventors performed investigations using an in vitro T-cell priming assay based on repeated stimulations of CD8+ T cells with artificial antigen presenting cells (aAPCs) loaded with peptide/MHC complexes and anti-CD28 antibody.
In order to perform in vitro stimulations by artificial antigen presenting cells loaded with peptide-MHC complex (pMHC) and anti-CD28 antibody, the inventors first isolated CD8+ T cells from fresh HLA-B*08 leukapheresis products via positive selection using CD8 microbeads (Miltenyi Biotec, Bergisch-Gladbach, Germany) of healthy donors obtained from the University clinics Mannheim, Germany, after informed consent.
PBMCs and isolated CD8+ lymphocytes were incubated in T-cell medium (TCM) until use consisting of RPMI-Glutamax (Invitrogen, Karlsruhe, Germany) supplemented with 10% heat inactivated human AB serum (PAN-Biotech, Aidenbach, Germany), 100 U/ml Penicillin/100 μg/ml Streptomycin (Cambrex, Cologne, Germany), 1 mM sodium pyruvate (CC Pro, Oberdorla, Germany), 20 μg/ml Gentamycin (Cambrex). 2.5 ng/ml IL-7 (PromoCell, Heidelberg, Germany) and 10 U/ml IL-2 (Novartis Pharma, Nornberg, Germany) were also added to the TCM at this step.
Generation of pMHC/anti-CD28 coated beads, T-cell stimulations and readout was performed in a highly defined in vitro system using four different pMHC molecules per stimulation condition and 8 different pMHC molecules per readout condition.
The purified co-stimulatory mouse IgG2a anti human CD28 Ab 9.3 (Jung et al., 1987) was chemically biotinylated using Sulfo-N-hydroxysuccinimidobiotin as recommended by the manufacturer (Perbio, Bonn, Germany). Beads used were 5.6 μm diameter streptavidin coated polystyrene particles (Bangs Laboratories, Illinois, USA).
800.000 beads/200 μl were coated in 96-well plates in the presence of 4×12.5 ng different biotin-pMHC, washed and 600 ng biotin anti-CD28 were added subsequently in a volume of 200 μl. Stimulations were initiated in 96-well plates by co-incubating 1×10^6 CD8+ T cells with 2×10^5 washed coated beads in 200 μl TCM supplemented with 5 ng/ml IL-12 (PromoCell) for 3 days at 37° C. Half of the medium was then exchanged by fresh TCM supplemented with 80 U/ml IL-2 and incubating was continued for 4 days at 37° C. This stimulation cycle was performed for a total of three times. For the pMHC multimer readout using 8 different pMHC molecules per condition, a two-dimensional combinatorial coding approach was used as previously described (Andersen et al., 2012) with minor modifications encompassing coupling to 5 different fluorochromes. Finally, multimeric analyses were performed by staining the cells with Live/dead near IR dye (Invitrogen, Karlsruhe, Germany), CD8-FITC antibody clone SK1 (BD, Heidelberg, Germany) and fluorescent pMHC multimers. For analysis, a BD LSRII SORP cytometer equipped with appropriate lasers and filters was used. Peptide specific cells were calculated as percentage of total CD8+ cells. Evaluation of multimeric analysis was done using the FlowJo software (Tree Star, Oregon, USA). In vitro priming of specific multimer+CD8+ lymphocytes was detected by comparing to negative control stimulations.

HLA-B*08:01 = HLA-B*08:01 (Homo sapiens, UniProt P01889); assay: MHC binding assay (UV-ligand exchange, beta2m ELISA); conditions: MHC class I binding score; binding to HLA-B*08:01 ranged by peptide exchange yield (UV-ligand exchange, β2m ELISA)
Method in brief: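 Peptide–HLA complexes generated by UV-ligand exchange of a UV-cleavable peptide for the test peptide; exchange yield read by β2m ELISA on streptavidin capture (samples diluted 100-fold, 1 h 37 °C), HRP anti-β2m, TMB, A450. Quantified against refolded HLA-A*02:01/MLA-001 monomer standards (15-500 ng/ml).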

[2] = HLA class I peptides, Table 10B

| Substance | Peptide exchange (HLA-B*08:01) | Wells positive [%] [1, 2] | Wells positive [%] ([1]; Table 10A, HLA-B*08 pMHC, healthy donors) |
| --- | --- | --- | --- |
| 1 (ALKLKVAEL; listed as Homo sapiens) [compound 1] | ++ (20% = ++) | ++ (20%-49% = ++) |  |
| 3 (SIQSRYISM; listed as Homo sapiens) [compound 3] | +++ (50% = +++) | ++ (20%-49% = ++) |  |
| 5 (STMPKILAL; listed as Homo sapiens) [compound 5] | +++ (50% = +++) | + (<20% = +) |  |
| 8 (FVRPKLVTI; listed as Homo sapiens) [compound 8] | +++ (50% = +++) | + (<20% = +) |  |
| 9 (LLKGKPRAL; listed as Homo sapiens) [compound 9] | ++ (20% = ++) | + (<20% = +) |  |
| 10 (MGKFKQCF; listed as Homo sapiens) [compound 10] | +++ (50% = +++) | ++++ (>=70% = ++++) |  |
| 11 (MAPLKMLAL; listed as Homo sapiens) [compound 11] | +++ (50% = +++) | +++ (50%-69%= +++) |  |
| 13 (EPFTRPVL; listed as Homo sapiens) [compound 13] | ++ (20% = ++) | + (<20% = +) |  |
| 18 (LSLVRKAL; listed as Homo sapiens) [compound 18] | +++ (50% = +++) | ++ (20%-49% = ++) |  |
| 19 (FTLLRRLSL; listed as Homo sapiens) [compound 19] | +++ (50% = +++) | ++++ (>=70% = ++++) |  |
| 20 (ILKRFLAC; listed as Homo sapiens) [compound 20] | +++ (50% = +++) | + (<20% = +) |  |
| 21 (RILKRFLAC; listed as Homo sapiens) [compound 21] | +++ (50% = +++) | + (<20% = +) |  |
| 22 (EVRLKPIL; listed as Homo sapiens) [compound 22] | ++ (20% = ++) | + (<20% = +) |  |
| 25 (HLHPKGREL; listed as Homo sapiens) [compound 25] | ++ (20% = ++) | ++ (20%-49% = ++) |  |
| 29 (ELFLHPVL; listed as Homo sapiens) [compound 29] | ++ (20% = ++) | ++ (20%-49% = ++) |  |
| 31 (SPRVKWTF; listed as Homo sapiens) [compound 31] | ++ (20% = ++) | ++++ (>=70% = ++++) |  |
| 33 (WIGLRNLDL; listed as Homo sapiens) [compound 33] | +++ (50% = +++) | + (<20% = +) |  |
| 34 (IYRKKYIL; listed as Homo sapiens) [compound 34] | ++ (20% = ++) | + (<20% = +) |  |
| 35 (ELFQRPVL; listed as Homo sapiens) [compound 35] | ++ (20% = ++) | + (<20% = +) |  |
| 286 (ILLPRTVSL; listed as Homo sapiens) [compound 286] |  |  | + (<20% = +) |

Further lines, with some results ahead:

| Peptide exchange (HLA-B*08:01) | Substance | Wells positive [%] [1, 2] | Wells positive [%] ([1]; Table 10A, HLA-B*08 pMHC, healthy donors) |
| --- | --- | --- | --- |
| ++ (20% = ++) | 36 (IVKIKVQEL; listed as Homo sapiens) [compound 36] | ++ (20%-49% = ++) |  |
| ++ (20% = ++) | 37 (EAFSRASL; listed as Homo sapiens) [compound 37] | ++ (20%-49% = ++) |  |
| +++ (50% = +++) | 38 (EVYQKIIL; listed as Homo sapiens) [compound 38] | ++++ (>=70% = ++++) |  |
| ++ (20% = ++) | 40 (ESMLKTTL; listed as Homo sapiens) [compound 40] | + (<20% = +) |  |
| ++ (20% = ++) | 41 (RGALRTLSL; listed as Homo sapiens) [compound 41] | + (<20% = +) |  |
| ++ (20% = ++) | 42 (VLRRKTLL; listed as Homo sapiens) [compound 42] | + (<20% = +) |  |
| +++ (50% = +++) | 45 (RLKVALSTL; listed as Homo sapiens) [compound 45] | + (<20% = +) |  |
| ++ (20% = ++) | 47 (HSRVKLAQL; listed as Homo sapiens) [compound 47] | ++ (20%-49% = ++) |  |
| ++ (20% = ++) | 48 (ELALRQTV; listed as Homo sapiens) [compound 48] | + (<20% = +) |  |
| +++ (50% = +++) | 49 (FLRVFTDSL; listed as Homo sapiens) [compound 49] | + (<20% = +) |  |
| ++ (20% = ++) | 57 (MPLKHYLL; listed as Homo sapiens) [compound 57] | +++ (50%-69%= +++) |  |
| ++ (20% = ++) | 58 (LPKKMKLL; listed as Homo sapiens) [compound 58] | ++ (20%-49% = ++) |  |
| +++ (50% = +++) | 60 (MLHIKKAEV; listed as Homo sapiens) [compound 60] | + (<20% = +) |  |
| ++ (20% = ++) | 62 (FMLAKEASL; listed as Homo sapiens) [compound 62] | + (<20% = +) |  |
| ++ (20% = ++) | 63 (YVKRKTNVL; listed as Homo sapiens) [compound 63] | + (<20% = +) |  |
| ++ (20% = ++) | 66 (DLKKTRVL; listed as Homo sapiens) [compound 66] | + (<20% = +) |  |
| +++ (50% = +++) | 68 (DLKIPRYPV; listed as Homo sapiens) [compound 68] | +++ (50%-69%= +++) |  |
| +++ (50% = +++) | 71 (HIRIKHTF; listed as Homo sapiens) [compound 71] | ++ (20%-49% = ++) |  |
| +++ (50% = +++) | 74 (RLKLRYEGL; listed as Homo sapiens) [compound 74] | ++ (20%-49% = ++) |  |
| +++ (50% = +++) | 75 (YARLKNVLL; listed as Homo sapiens) [compound 75] | +++ (50%-69%= +++) |  |
| +++ (50% = +++) | 76 (HPRLKVNLL; listed as Homo sapiens) [compound 76] | + (<20% = +) |  |
| ++ (20% = ++) | 78 (DGHMKVFSL; listed as Homo sapiens) [compound 78] | ++ (20%-49% = ++) |  |
| +++ (50% = +++) | 80 (EVYLRMYQL; listed as Homo sapiens) [compound 80] | +++ (50%-69%= +++) |  |
| ++ (20% = ++) | 82 (SIRKRPML; listed as Homo sapiens) [compound 82] | + (<20% = +) |  |
| +++ (50% = +++) | 83 (FVLLRSVDL; listed as Homo sapiens) [compound 83] | +++ (50%-69%= +++) |  |
| ++ (20% = ++) | 86 (RPIHHPLVL; listed as Homo sapiens) [compound 86] | + (<20% = +) |  |
| +++ (50% = +++) | 89 (VPYTKVQL; listed as Homo sapiens) [compound 89] | + (<20% = +) |  |
